Reference: the supplement of paper PMC10307832

Tests used:
Assay in all cases: relative viability (nuclei count vs DMSO), 5 days (fraction); higher = more cells survive
[1] = compound: Cc1nc(Nc2ncc(C(=O)Nc3c(C)cccc3Cl)s2)cc(N2CCN(CCO)CC2)n1 [Dasatinib] + Cc1cc(Nc2cc(N3CCN(C)CC3)nc(Sc3ccc(NC(=O)C4CC4)cc3)n2)n[nH]1 [Tozasertib] (partner 0.1 µM)
Procedure, shortened: (§1)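 The day after seeding in 1536-well plates, lung cancer cell lines were treated by pin tool with a single drug, or with a fixed anchor-drug dose together with five library-drug doses (not always all listed) in √10 steps. After 5 days, a combined fix-and-stain solution (final 0.05% Triton X-100, 1% formaldehyde, 1 ug/ml Hoechst) was added. Nuclei counted on 4× images gave relative viability as treated counts over vehicle counts, reported as the median of duplicate plates.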

[2] = compound: C1CC1C(=O)NC2=NNC3=C2C=CC(=C3)C4=CC(=CC=C4)C(=O)NC5CC5 [XMD13-2] + C[C@@H](Oc1cc(-c2cnn(C3CCNCC3)c2)cnc1N)c1c(Cl)ccc(F)c1Cl [Crizotinib] (partner 1 µM)
Procedure, shortened: as §1

[3] = compound: Cc1nc(Nc2ncc(C(=O)Nc3c(C)cccc3Cl)s2)cc(N2CCN(CCO)CC2)n1 [Dasatinib] + CCNC(=O)c1noc(-c2cc(C(C)C)c(O)cc2O)c1-c1ccc(CN2CCOCC2)cc1 [Luminespib] (partner 0.01 µM)
Procedure, shortened: as §1

[4] = compound: C1CC1C(=O)NC2=NNC3=C2C=CC(=C3)C4=CC(=CC=C4)C(=O)NC5CC5 [XMD13-2] + CS(=O)(=O)CCNCc1ccc(-c2ccc3ncnc(Nc4ccc(OCc5cccc(F)c5)c(Cl)c4)c3c2)o1 [Lapatinib] (partner 2 µM)
Procedure, shortened: as §1

Cell Line | relative viability ([1]; first compound 0.005 µM) | relative viability ([1]; first compound 0.01581 µM) | relative viability ([1]; first compound 0.05 µM) | relative viability ([1]; first compound 0.1581 µM) | relative viability ([1]; first compound 0.5 µM) | relative viability ([2]; first compound 0.05 µM) | relative viability ([2]; first compound 0.1581 µM) | relative viability ([2]; first compound 0.5 µM) | relative viability ([2]; first compound 1.581 µM) | relative viability ([2]; first compound 5 µM) | relative viability ([3]; first compound 0.005 µM) | relative viability ([3]; first compound 0.01581 µM) | relative viability ([3]; first compound 0.05 µM) | relative viability ([3]; first compound 0.1581 µM) | relative viability ([3]; first compound 0.5 µM) | relative viability ([4]; first compound 0.05 µM) | relative viability ([4]; first compound 0.1581 µM) | relative viability ([4]; first compound 0.5 µM) | relative viability ([4]; first compound 1.581 µM) | relative viability ([4]; first compound 5 µM)
201T | 0.877 | 0.746 | 0.751 | 0.606 | 0.425 | 1 | 1.01 | 1 | 0.988 | 1.07 | 0.998 | 0.81 | 0.836 | 0.548 | 0.378 | 1.06 | 1.13 | 1.02 | 1.07 | 1.08
A549 | – | – | – | – | – | 0.994 | 0.736 | 0.721 | 0.664 | 0.824 | – | – | – | – | – | 1.2 | 0.974 | 0.938 | 0.811 | 0.891
A-427 | 0.223 | 0.214 | 0.176 | 0.142 | 0.156 | 1.01 | 0.872 | 0.812 | 0.724 | 0.34 | 0.742 | 0.704 | 0.739 | 0.673 | 0.486 | 1.1 | 1.01 | 1.1 | 1.01 | 1.05
ABC-1 | 0.174 | 0.217 | 0.172 | 0.15 | 0.154 | 1.4 | 1.41 | 1.16 | 1.03 | 0.675 | 0.562 | 0.52 | 0.314 | 0.411 | 0.293 | 1.42 | 1.29 | 1.12 | 1.2 | 1.23
BEN | 0.516 | 0.412 | 0.489 | 0.415 | 0.406 | 0.919 | 0.913 | 0.852 | 0.989 | 0.917 | 0.439 | 0.547 | 0.266 | 0.2 | 0.269 | 0.954 | 0.829 | 0.802 | 0.597 | 0.621
CAL-12T | 0.386 | 0.346 | 0.297 | 0.228 | 0.112 | 0.76 | 0.816 | 0.572 | 0.538 | 0.874 | 0.794 | 0.374 | 0.334 | 0.129 | 0.072 | 0.627 | – | 0.795 | 0.537 | 0.46
COR-L23 | 0.199 | 0.159 | 0.173 | 0.119 | 0.109 | 0.746 | 0.51 | 0.765 | 0.653 | 0.759 | 0.698 | 0.531 | 0.7 | 0.461 | 0.299 | 1.26 | 1.09 | 0.929 | 1.08 | 0.91
COR-L 105 | 0.375 | 0.299 | 0.332 | 0.228 | 0.208 | 1 | 0.843 | 0.881 | 0.701 | 0.927 | 0.67 | 0.588 | 0.637 | 0.571 | 0.22 | 0.395 | 0.319 | 0.426 | 0.346 | 0.27
Calu-6 | – | – | – | – | – | 0.958 | 0.813 | 0.898 | 0.773 | 0.643 | – | – | – | – | – | 1.18 | 0.93 | 1.11 | 0.983 | 0.736
ChaGo-K-1 | 0.23 | 0.203 | 0.207 | 0.21 | 0.186 | 1.26 | 1.08 | 1.25 | – | 1.14 | 0.555 | 0.543 | 0.591 | 0.486 | 0.366 | – | – | – | – | –
EBC-1 | – | – | – | – | – | 0.225 | 0.208 | 0.204 | 0.178 | 0.199 | – | – | – | – | – | 0.199 | 0.22 | 0.215 | 0.185 | 0.214
EKVX | 0.372 | 0.279 | 0.303 | 0.214 | 0.119 | 1.05 | 1.21 | 1.06 | 0.977 | 1.12 | 0.797 | 0.665 | 0.808 | 0.637 | 0.207 | 0.205 | 0.173 | 0.177 | 0.192 | 0.196
EMC-BAC-2 | 0.271 | 0.205 | 0.226 | 0.179 | 0.164 | 0.818 | 0.79 | 0.795 | 0.745 | 0.36 | 0.978 | 0.93 | 0.942 | 0.558 | 0.44 | 1.03 | 0.866 | 0.92 | 0.879 | 0.532
EPLC-272H | 0.254 | 0.282 | 0.222 | 0.137 | 0.122 | 1.02 | 0.76 | 1.09 | 0.802 | 0.25 | 0.679 | 0.392 | 0.512 | 0.121 | 0.111 | 1.09 | 0.897 | 1.01 | 0.817 | 0.911
H3255 | 0.721 | 0.543 | 0.463 | 0.547 | 0.322 | 0.972 | 0.694 | 0.699 | 0.884 | 0.784 | 0.919 | 0.901 | 0.793 | 0.919 | 0.371 | 0.444 | 0.223 | 0.297 | 0.199 | 0.201
HARA | 0.119 | 0.133 | 0.0917 | 0.0528 | 0.0523 | 1.2 | 1.05 | 1.13 | 1.1 | 0.486 | 0.774 | 0.552 | 0.413 | 0.207 | 0.133 | 0.825 | 0.886 | 0.699 | 0.711 | 0.538
HCC-15 | 0.424 | 0.403 | 0.338 | 0.251 | 0.235 | 0.925 | 0.766 | 0.857 | 0.793 | 0.472 | 0.381 | 0.316 | 0.248 | 0.247 | 0.108 | 0.983 | 0.761 | 0.918 | 0.801 | 0.519
HCC-44 | 1.19 | 0.716 | 0.452 | 0.75 | 0.313 | 0.789 | 0.814 | 0.75 | 0.772 | 0.755 | 1.15 | 1.01 | 0.733 | 0.604 | 0.453 | 1.01 | 1.12 | 1.08 | 0.957 | 0.771
